From PMC10044640, “Antimicrobial Peptides Designed against the Ω-Loop of Class A β-Lactamases to Potentiate the Efficacy of β-Lactam Antibiotics” (Antibiotics, 2023)
Where two headings read alike, the source gives them in different places.

Experiments:
K. pneumoniae = assay: HT-SPOTi MIC of β-lactams with or without peptides; format: cell-based, Klebsiella pneumoniae; settings: for MIC Value Antibiotics, β-lactam alone: K. pneumoniae, no peptide, triplicate
E. coli CS109 [1] = assay: Broth microdilution MIC; format: cell-based, Escherichia coli; settings: E. coli CS109, no peptide; broth microdilution (CLSI), MHB, ~10^5 cells/well, OD600; triplicate
TEM-1 = biological target: T1, TEM-1 (Escherichia coli, UniProt P62593); assay: Kinetics of β-lactam hydrolysis with or without peptides; format: biochemical
T1 construct: The full-length constructs (blaSHV-14 and blaTEM-1) were cloned and expressed in pBAD18-Cam (Cam^R) vector; 6xHis (N); made in house; host or cells: E. coli BL21 (DE3) pLysS, pET28a(+)
T1 sequence (P62593 24-286 limits assumed): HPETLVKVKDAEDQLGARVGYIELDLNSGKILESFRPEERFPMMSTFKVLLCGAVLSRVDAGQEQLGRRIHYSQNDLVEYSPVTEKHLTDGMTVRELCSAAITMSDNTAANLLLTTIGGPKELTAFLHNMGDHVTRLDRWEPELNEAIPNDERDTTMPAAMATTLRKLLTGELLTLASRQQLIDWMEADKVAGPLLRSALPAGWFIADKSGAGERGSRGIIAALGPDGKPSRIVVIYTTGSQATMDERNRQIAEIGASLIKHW
Experimental: (§1) The N-terminal 6X histidine-tagged proteins (SHV-14 and TEM-1) were expressed from the respective plasmid constructs already available in the laboratory and were purified by Ni-NTA affinity chromatography using an AKTA prime plus (GE Healthcare, Piscataway, NJ, USA) as described previously. Nitrocefin hydrolysis was used to validate the β-lactamase activity of both proteins.
(§2) Assessment of enzyme activities was carried out by calculating the kinetic parameters [Michaelis–Menten constants (Km and Vmax), turn-over number (kcat), and catalytic efficiency (kcat/Km)] with various β-lactam substrates in the presence of the peptides as described previously. The hydrolysis reaction was carried out at 25 °C in 10 mM Tris-HCl, 300 mM NaCl (pH 7.5) buffer supplemented with 1 μg mL^−1 bovine serum albumin for protein stability. The enzyme concentrations (0.46 μM: SHV-14 and 0.42 μM: TEM-1) were taken to determine the initial rate constants at varying substrate concentrations (20–500 μM). The values were calculated using the online curve-fitting tool (https://www.mycurvefit.com, MyAssays Ltd., Brighton, UK, accessed on 25 May 2022).

[2] = system: E. coli CS109 + pBAD-TEM1; format: cell-based, Escherichia coli; settings: CS109 + pBAD-TEM1, no peptide; broth microdilution, MHB, ~10^5 cells/well, OD600
SHV-14 = assay: Kinetics of β-lactam hydrolysis with or without peptides; format: biochemical, Klebsiella pneumoniae; settings: SHV-14 0.46 μM, no peptide, 25 °C; for Km: 10 mM Tris-HCl, 300 mM NaCl pH 7.5, 1 μg/mL BSA, substrate 20–500 μM, read-out: Km, β-lactam substrate alone; for kcat, β-lactam substrate alone: pH 7.5
Experimental: as §1, §2

[3] = system: E. coli CS109 + pBAD-TEM1; format: cell-based, Escherichia coli; settings: E. coli CS109 + pBAD-TEM1 (arabinose-induced), no peptide; HT-SPOTi
[4] = system: E. coli CS109 + pBAD-SHV-14; format: cell-based, Escherichia coli
[5] = system: E. coli CS109 + pBAD-SHV-14; format: cell-based, Escherichia coli; settings: E. coli CS109 + pBAD-SHV-14 (arabinose-induced), no peptide; HT-SPOTi
M. smegmatis MC2 155 = assay: HT-SPOTi MIC of β-lactams with or without peptides; format: cell-based, Mycobacterium smegmatis; settings: no peptide, triplicate
E. coli CS109 [6] = assay: HT-SPOTi MIC of β-lactams with or without peptides; format: cell-based, Escherichia coli; settings: for MIC Value Antibiotics, β-lactam alone: E. coli CS109, no peptide, HT-SPOTi agar, ~10^3 CFU/well, triplicate
M. tuberculosis H37Rv = assay: HT-SPOTi MIC of ampicillin with or without peptides; format: cell-based; settings: Mycobacterium tuberculosis, MTB H37Rv, control row of Table S2, read-out: MIC value, control drug
[7] = system: Gram-negative strains (E. coli CS109, K. pneumoniae); assay: HT-SPOTi, cephalosporins with peptides; format: cell-based, Escherichia coli; Klebsiella pneumoniae; settings: strain not given
Experimental: HT-SPOTi (high-throughput spot culture growth inhibition) assay was used to evaluate the whole cell phenotypic effect of peptides against a selection of Gram-negative and acid-fast bacterial strains in the presence of β-lactam antibiotics as previously described. The distribution of the molten agar media into the 96 wells was achieved using the Multidrop Combi microplate dispenser (Thermo-Fisher Scientific). Plates were left for 5 min for the agar to set, and a diluted inoculum of bacteria was applied (2 µL of ∼10^3 CFU) into each well by either the use of a multi-channel pipettor or by using the Multidrop Combi. DMSO was taken as no antibiotic control and kanamycin as non-β-lactam drug control. Unless otherwise specified, all the experiments were performed in triplicate.
To check the inhibitory activity of peptides and comprehend particular structure–activity relationships, HT-SPOTi assay was performed. The whole-cell phenotypic effect of the 10 pentapeptides was ascertained in combination with β-lactam antibiotics in E. coli CS109 and K. pneumoniae.

[8] = system: CCN1CCN(C(=O)N[C@@H](C(=O)N[C@@H]2C(=O)N3[C@@H]2SC(C)(C)[C@@H]3C(=O)O)c2ccccc2)C(=O)C1=O; assay: Kinetics of β-lactam hydrolysis with or without peptides; format: biochemical, Escherichia coli; settings: other: TEM-1 0.42 μM, no peptide, 25 °C, 10 mM Tris-HCl, 300 mM NaCl pH 7.5, 1 μg/mL BSA, substrate 20–500 μM
Experimental: as §1, §2

[9] = system: CC1(C)S[C@@H]2[C@H](NC(=O)[C@H](N)c3ccc(O)cc3)C(=O)N2[C@H]1C(=O)O; assay: as above; format: biochemical, Escherichia coli; settings: other: TEM-1 0.42 μM, no peptide, 25 °C, 10 mM Tris-HCl, 300 mM NaCl pH 7.5, 1 μg/mL BSA, substrate 20–500 μM
Experimental: as §1, §2

[10] = TEM-1 0.42 μM, no peptide; 25 °C, pH 7.5
[11] = CS109 + pBAD-SHV-14, no peptide, broth microdilution, MHB, ~10^5 cells/well, OD600

Row | Compound | MIC Value Antibiotics, β-lactam alone (K. pneumoniae) [µg/mL] | MIC Value of Antibiotics, β-lactam alone (E. coli CS109 [1]) [µg/mL] | Km (SHV-14) [µM] | kcat, β-lactam substrate alone (SHV-14) [s⁻¹] | MIC Value of Antibiotics, β-lactam alone [3] [µg/mL] | MIC Value Antibiotics, β-lactam alone (E. coli CS109 [6]) [µg/mL] | levels of resistance to the cephalosporin with peptides [7] | further results
1 | CC1(C)S[C@@H]2[C@H](NC(=O)[C@H](N)c3ccccc3)C(=O)N2[C@H]1C(=O)O [Amp, Ampicillin] | 32 | 8 | 187 ± 12.2 | 644.95 ± 10.97 | 16 | 4 |  | kcat, β-lactam substrate alone (TEM-1; [10]): 290 ± 85.55 s⁻¹; Km (TEM-1; read-out: Km, β-lactam substrate alone; TEM-1 0.42 μM, no peptide; 25 °C, 10 mM Tris-HCl, 300 mM NaCl pH 7.5, 1 μg/mL BSA; substrate 20–500 μM): 66 ± 12.2 µM; MIC Value of Antibiotics, β-lactam alone [2]: 32 µg/mL; MIC Value of Antibiotics, β-lactam alone [4, 11]: 64 µg/mL; MIC Value of Antibiotics, β-lactam alone [5]: 32 µg/mL; MIC Value Antibiotics, β-lactam alone (M. smegmatis MC2 155): 4 µg/mL
2 | CC1(C)S[C@@H]2[C@H](NC(=O)[C@H](N)c3ccc(O)cc3)C(=O)N2[C@H]1C(=O)O [Amx, Amoxicillin] | 64 | 16 | 112 ± 12.2 | 416.95 ± 5.02 | 32 | 8 |  | MIC Value of Antibiotics, β-lactam alone [2]: 64 µg/mL; MIC Value Antibiotics, β-lactam alone (M. smegmatis MC2 155): 2 µg/mL
3 | NNC(=O)c1ccncc1 [Isoniazid] |  |  |  |  |  |  |  | MIC (M. tuberculosis H37Rv): 2 µg/mL
4 | NC[C@H]1O[C@H](O[C@H]2[C@H](O)[C@@H](O[C@H]3O[C@H](CO)[C@@H](O)[C@H](N)[C@H]3O)[C@H](N)C[C@@H]2N)[C@H](O)[C@@H](O)[C@@H]1O [Kanamycin] |  |  |  |  |  |  |  | MIC Value, non-β-lactam drug control (K. pneumoniae; Table 3b control row, one value printed under each column Pen, Amp, Amx, Pip): 64 µg/mL; MIC Value, non-β-lactam drug control (E. coli CS109 [6]; Table 4 control row, construct not given, one value under each column Pen, Amp, Amx, Pip, HT-SPOTi): 64 µg/mL
5 | CCN1CCN(C(=O)N[C@@H](C(=O)N[C@@H]2C(=O)N3[C@@H]2SC(C)(C)[C@@H]3C(=O)O)c2ccccc2)C(=O)C1=O [Pip, Piperacillin] | 64 | 16 | 98.7 ± 12.2 | 432.09 ± 5.97 | 64 | 16 |  | MIC Value of Antibiotics, β-lactam alone [2]: 125 µg/mL; MIC Value of Antibiotics, β-lactam alone [4, 11]: 125 µg/mL; MIC Value of Antibiotics, β-lactam alone [5]: 64 µg/mL; MIC Value Antibiotics, β-lactam alone (M. smegmatis MC2 155): >250 µg/mL
6 | N[C@@H](C(=O)N[C@@H]1C(=O)N2C(C(=O)O)=C(Cl)CS[C@H]12)c1ccccc1 [cefaclor] |  |  |  |  |  |  | remained unaltered | 
7 | CC1=C(C(=O)O)N2C(=O)[C@@H](NC(=O)[C@H](N)c3ccc(O)cc3)[C@H]2SC1 [cefadroxil] |  |  |  |  |  |  | remained unaltered | 
8 | CO/N=C(\C(=O)N[C@@H]1C(=O)N2C(C(=O)[O-])=C(C[N+]3(C)CCCC3)CS[C@H]12)c1csc(N)n1 [cefepime] |  |  |  |  |  |  | remained unaltered | 
9 | CCN1CCN(C(=O)N[C@@H](C(=O)N[C@@H]2C(=O)N3C(C(=O)O)=C(CSc4nnnn4C)CS[C@H]23)c2ccc(O)cc2)C(=O)C1=O [cefoperazone] |  |  |  |  |  |  | remained unaltered | 
10 | CC(C)(O/N=C(\C(=O)N[C@@H]1C(=O)N2C(C(=O)[O-])=C(C[n+]3ccccc3)CS[C@H]12)c1csc(N)n1)C(=O)O [ceftazidime] |  |  |  |  |  |  | remained unaltered | 
11 | Penicillin | 32 | 64 | 144 ± 4.43 | 586.95 ± 15.97 | 64 | 32 |  | Km (TEM-1; TEM-1 0.42 μM, no peptide; 25 °C, 10 mM Tris-HCl, 300 mM NaCl pH 7.5, 1 μg/mL BSA; substrate 20–500 μM; read-out: Km, β-lactam substrate alone): 67.2 ± 4.43 µM; kcat, β-lactam substrate alone (TEM-1; [10]): 386.95 ± 15.97 s⁻¹; MIC Value of Antibiotics, β-lactam alone [4]: 500 µg/mL; MIC Value of Antibiotics, β-lactam alone [5]: 250 µg/mL
12 | TEM-1 (Escherichia coli) |  |  |  |  |  |  |  | Km [8]: 136.32 ± 12.16 µM; kcat [8]: 331 ± 12.2 s⁻¹; Km [9]: 105.09 ± 12.16 µM; kcat [9]: 427 ± 21 s⁻¹
